Results: patent US7037939B2, “Compound and derivative of gabapentin” (Industrial Technology Research Institue, priority 2002, dated 2006)
Where a name gives a salt, the structure may show the parent alone.

Tested on: Caco-2 cell
Assay: Caco-2 monolayer cell transmission rate (in vitro intestinal absorption model)
Type: in vitro ADME, human
Text: The common use of the activity selection model for the in vitro intestinal absorption comprises: (1) Carcinoms (Caco-2); (2) Using Chamber; (3) Everted Gut Sac. Basically, there is no difference for those three drug-activity-selection models when they are used for evaluating the activity selection. However, in terms of the cell source from human, a cell line is predominant. Moreover, with the cellular metabolism being similar to human intestines, Caco-2 becomes an excellent tool in the study of intestine absorption. Therefore, in the comparison of the in vitro transmission rate between gabapentin and gabapentin derivatives, the Caco-2 system is still the favorable model.
The research for studying gabapentin and the derivatives thereof in the present invention includes: Caco-2 cell activation, Caco-2 monolayer cell cultivation, resistance value measurement, effect of time to gabapentin transmission rate, and comparison of transmission rate between gabapentin and gabapentin derivatives. In constructing the Caco-2 monolayer, the original cell line is the human colon adenocarcinoma cell (Caco-2), and its data sheet is listed as Table 2.
The Caco-2 cell is activated appropriately, and seeded in the transwell at 37° C. in an amount of about 1×10^5. The aliquot is cultivated in 5% CO2 at 37° C. and replaced with a fresh medium every 3 to 4 days, and then the monolayer cell is obtained by the 21 days cultivation. The integrity of the Caco-2 cell is further characterized by tissue section and resistance value measurement.
HPLC Analysis: Intersil ODS-3V 250*4.6 mm column, Solvent: MeOH/H2O=10:90 to 70:30 with 0.1% of NH4OAc, Flow rate=1.0 ml/min, ELSD: Evaporative Light Scattering Detector. Every derivative has been repeated for 3 times in analysis, 4 hr later, the sample is analyzed for the transmission rate and then averaged to account its transmission fold.

[1] = Caco-2 monolayer, 4 h, mean of 3 repeats, HPLC-ELSD
[2] = ratio of Caco-2 transmission rate to GBP.HCl, 4 h

| Compound | Caco-2 Cell Mean Total Transmission rate 4 h (%) [1] | gbp-prodrug/gbp Transmission Fold [2] | Caco-2 Cell Mean Total Transmission rate 4 h (%) (human, Caco-2, 4 h) | gbp-prodrug/gbp Transmission Fold (human, Caco-2, 4 h) |
| --- | --- | --- | --- | --- |
| NCC1(CC(=O)O)CCCCC1 [Control 1, Gabapentin HCl, reference compound] | 1.1% | 1 Fold |  |  |
| CC(C)C[C@@H](NC(=O)OC(C)(C)C)C(=O)NCC1(CC(=O)O)CCCCC1 [Embodiment 1, {1-[(2R-tert-Butoxycarbonylamino-4-methyl-pentanoylamino)-methyl]-cyclohexyl}-acetic acid] | 29% | 26.4 Fold |  |  |
| CC(C)(C)OC(=O)NC(C(=O)NCC1(CC(=O)O)CCCCC1)c1ccccc1 (stereo not shown) [Embodiment 3, {1-[(2-tert-Butoxycarbonylamino-2-phenyl-acetylamino)-methyl]-cyclohexyl}-acetic acid] | 3.1% | 2.8 Fold |  |  |
| CC(C)(C)OC(=O)NC(Cc1ccccc1)C(=O)NCC1(CC(=O)O)CCCCC1 (stereo not shown) [Embodiment 4, {1-[(2-tert-Butoxycarbonylamino-3-phenyl-propionylamino)-methyl]-cyclohexyl}-acetic acid] | 10% | 9.1 Fold |  |  |
| CSCCC(NC(=O)OC(C)(C)C)C(=O)NCC1(CC(=O)O)CCCCC1 (stereo not shown) [Embodiment 5, {1-[(2-tert-Butoxycarbonylamino-4-methylsulfanyl-butyrylamino)-methyl]-cyclohexyl}-acetic acid] | 26% | 23.6 Fold |  |  |
| CC(C)(C)OC(=O)NCC1(CC(=O)NCC2(CC(=O)O)CCCCC2)CCCCC1 [Embodiment 6, [1-({2-[1-(tert-Butoxycarbonylamino-methyl)-cyclohexyl]-acetylamino}-methyl)-cyclohexyl]-acetic acid] | 27% | 24.5 Fold |  |  |
| CCOC(=O)CC1(CNC(=O)C2CCNCC2)CCCCC1 [Embodiment 7, (1-{[(Piperidine-4-carbonyl)-amino]-methyl}-cyclohexyl)-acetic acid ethyl ester] |  |  | 1% | 0.9 Fold |
| CCOC(=O)CC1(CNC(=O)c2ccccc2)CCCCC1 [Embodiment 8, [1-(Benzoylamino-methyl)-cyclohexyl]-acetic acid ethyl ester] |  |  | 21.4% | 19.5 Fold |
| CCOC(=O)CC1(CNC(=O)C2(N)CCCCC2)CCCCC1 [Embodiment 9, (1-{[(1-Amino-cyclohexanecarbonyl)-amino]-methyl}-cyclohexyl)-acetic acid ethyl ester] |  |  | 10.4% | 9.5 Fold |
| CC(C)(C)OC(=O)NC(CO)C(=O)NCC1(CC(=O)O)CCCCC1 (stereo not shown) [Embodiment 10, {1-[(2-tert-Butoxycarbonylamino-3-hydroxy-propionylamino)-methyl]-cyclohexyl}-acetic acid] |  |  | 20.7% | 18.8 Fold |
| CCOC(=O)CC1(CNC(=O)C(C)N)CCCCC1 (stereo not shown) [Embodiment 11, {1-[(2-Amino-propionylamino)-methyl]-cyclohexyl}-acetic acid ethyl ester] |  |  | 17.6% | 16.0 Fold |
| CCOC(=O)C(Cc1ccccc1)NC(=O)C(C)NC(=O)CC1(CN)CCCCC1 (stereo not shown) [Embodiment 12, 2-{2-[2-(1-Aminonethyl-cyclohexyl)-acetylamino]-propionylamino}-3-phenyl-propionic acid ethyl ester] | 2.83% | 2.6 Fold |  |  |
| CCOC(=O)CC1(CNC(=O)C(N)CC(C)C)CCCCC1 (stereo not shown) [Embodiment 13, {1-[(2-Amino-4-methyl-pentanoylamino)-methyl]-cyclohexyl}-acetic acid ethyl ester] |  |  | 12.37% | 11.2 Fold |
| CCOC(=O)CC1(CNC(=O)C(N)CO)CCCCC1 (stereo not shown) [Embodiment 14, {1-[(2-Amino-3-hydroxy-propionylamino)-methyl]-cyclohexyl}-acetic acid ethyl ester] |  |  | 10.95% | 10.0 Fold |
| CC(C)(C)OC(=O)NC(Cc1ccccc1)C(=O)NCC1(CC(=O)O)CCCCC1 (stereo not shown) [Embodiment 15, {1-[(2-tert-Butoxycarbonylamino-3-phenyl-propionylamino)-methyl]-cyclohexyl}-acetic acid] | 0.93% | 0.8 Fold |  |  |
| CCOC(=O)CC1(CNC(=O)C(N)Cc2ccccc2)CCCCC1 (stereo not shown) [Embodiment 16, {1-[(2-Amino-3-phenyl-propionylamino)-methyl]-cyclohexyl}-acetic acid ethyl ester] |  |  | 10.30% | 9.4 Fold |
| CCOC(=O)CC1(CNC(=O)C(N)C(C)CC)CCCCC1 (stereo not shown) [Embodiment 17, {1-[(2-Amino-3-methyl-pentanoylamino)-methyl]-cyclohexyl}-acetic acid ethyl ester] |  |  | 9.47% | 8.6 Fold |
| CCOC(=O)CC1(CNC(=O)c2ccccc2CN)CCCCC1 [Embodiment 18, {1-[(2-Aminomethyl-benzoylamino)-methyl]-cyclohexyl}-acetic acid ethyl ester] |  |  | 2.13% | 1.9 Fold |
| CCOC(=O)CC1(CNC(=O)C2CCC(CN)CC2)CCCCC1 (stereo not shown) [Embodiment 19, (1-{[(4-Aminomethyl-cyclohexanecarbonyl)-amino]-methyl}-cyclohexyl)-acetic acid ethyl ester] |  |  | 11.14% | 10.1 Fold |
| CCOC(=O)CC1(CNC(=O)C(CC(C)C)NC(=O)CC2(CN)CCCCC2)CCCCC1 (stereo not shown) [Embodiment 20, [1-({2-[2-(1-Aminomethyl-cyclohexyl)-acetylamino]-4-methyl-pentanoylamino}-methyl)-cyclohexyl]-acetic acid ethyl ester] | 12.22% | 11.1 Fold |  |  |
| CCOC(=O)CC1(CNC(=O)C(NC(=O)CC2(CN)CCCCC2)c2ccccc2)CCCCC1 (stereo not shown) [Embodiment 21, [1-({2-[2-(1-Aminomethyl-cyclohexyl)-acetylamino]-2-phenyl-acetylamino}-methyl)-cyclohexyl]-acetic acid ethyl ester] | 8.58% | 7.8 Fold |  |  |
| CCOC(=O)CC1(CNC(=O)C(Cc2ccccc2)NC(=O)CC2(CN)CCCCC2)CCCCC1 (stereo not shown) [Embodiment 22, [1-({2-[2-(1-Aminomethyl-cyclohexyl)-acetylamino]-3-phenyl-propionylamino}-methyl)-cyclohexyl]-acetic acid ethyl ester] | 9.26% | 8.4 Fold |  |  |
| NCC1(CC(=O)N2CCCC2C(=O)NCC2(CC(=O)O)CCCCC2)CCCCC1 (stereo not shown) [Embodiment 23, {1-[({1-[2-(1-Aminomethyl-cyclohexyl)-acetyl]-pyrrolidine-2-carbonyl}-amino)-methyl]-cyclohexyl}-acetic acid] | 10.73% | 9.8 Fold |  |  |
| CCOC(=O)CC1(CNC(=O)c2ccc(O)c(OC)c2)CCCCC1 [Embodiment 24, {1-[(4-Hydroxy-3-methoxy-benzoylamino)-methyl]-cyclohexyl}-acetic acid ethyl ester] |  |  | 13.59% | 12.4 Fold |
| CCOC(=O)CC1(CNC(=O)C2CCC(=O)N2)CCCCC1 (stereo not shown) [Embodiment 25, (1-{[(5-Oxo-pyrrolidine-2-carbonyl)-amino]-methyl}-cyclohexyl)-acetic acid ethyl ester] |  |  | 5.68% | 5.2 Fold |
| CCOC(=O)CC1(CNC(=O)C(N)CCSC)CCCCC1 (stereo not shown) [Embodiment 26, {1-[(2-Amino-4-methylsulfanyl-butyrylamino)-methyl]-cyclohexyl}-acetic acid ethyl ester] |  |  | 9.02% | 8.2 Fold |
| CCOC(=O)CC1(CNC(=O)c2cccnc2)CCCCC1 [Embodiment 27, (1-{[(Pyridine-3-carbonyl)-amino]-methyl}-cyclohexyl)-acetic acid ethyl ester] |  |  | 9.39% | 8.5 Fold |
| CCOC(=O)CC1(CNC(=O)C(C)N)CCCCC1 (stereo not shown) [Embodiment 28, {1-[(2-Amino-propionylamino)-methyl]-cyclohexyl}-acetic acid ethyl ester] |  |  | 8.11% | 7.4 Fold |
| CCOC(=O)CC1(CNC(=O)C(N)C(C)C)CCCCC1 (stereo not shown) [Embodiment 29, {1-[(2-Amino-3-methyl-butyrylamino)-methyl]-cyclohexyl}-acetic acid ethyl ester] |  |  | 8.73% | 7.9 Fold |
